Results from BindingDB's records for doi:10.7270/Q2K072QS (Burnham Center For Chemical Genomics, 2010).

Target: G-protein coupled receptor 35 (Homo sapiens, UniProt Q9HC97)
Test: GPR35 antagonists by imaging, SAR follow-up, selectivity assay for GPR55 agonist project, high-content imaging (AID 2338)
Settings: not given

Chain of G-protein coupled receptor 35 (Q9HC97 whole entry): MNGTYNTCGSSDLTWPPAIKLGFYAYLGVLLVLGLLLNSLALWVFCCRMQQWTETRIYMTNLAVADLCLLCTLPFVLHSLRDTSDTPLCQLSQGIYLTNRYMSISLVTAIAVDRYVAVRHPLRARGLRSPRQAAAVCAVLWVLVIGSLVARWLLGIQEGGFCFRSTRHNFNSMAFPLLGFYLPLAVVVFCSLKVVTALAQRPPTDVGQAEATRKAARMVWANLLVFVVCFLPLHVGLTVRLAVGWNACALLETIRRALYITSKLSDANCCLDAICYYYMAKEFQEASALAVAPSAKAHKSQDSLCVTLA

SMILES	IC50 [µM]
C=CCN(CC=C)S(=O)(=O)c1ccc(NC(=S)NC(=O)c2ccc(-c3ccccc3)cc2)cc1	> 32
COc1ccccc1C=CC(=O)NC(=S)Nc1ccc(S(=O)(=O)N(C)c2ccccc2)cc1	> 32
O=C(CSc1nc2ccccc2s1)N1c2ccccc2Sc2ccc(C(F)(F)F)cc21	> 32
Cc1cccc(N2CCN(C(=O)c3cc(S(=O)(=O)N(C)C)ccc3N3CCCC3)CC2)c1C	> 32
CCCN(CCC)Cc1c(C(=O)NN=Cc2c[nH]c3ccccc23)nnn1-c1nonc1N	> 32
C/C(C=NNC(=O)c1nnn(-c2nonc2N)c1CN1CCC(C)CC1)=C/c1ccccc1	> 32
CCCN(CCC)Cc1c(C(=O)NN=C/C(C)=C\c2ccccc2)nnn1-c1nonc1N [1-(4-azanyl-1,2,5-oxadiazol-3-yl)-5-[(dipropylamino)methyl]-N-[[(Z)-2-methyl-3-phenyl-prop-2-enylidene]amino]-1,2,3-triazole-4-carboxamide]	> 32
COc1cc2c(cc1NC(=O)C(C)Sc1ccc(NC(C)=O)cc1)oc1ccccc12 (stereo unspecified) [2-[(4-acetamidophenyl)thio]-N-(2-methoxy-3-dibenzofuranyl)propanamide]	> 32
Cc1occc1C(=O)Nc1ccc(OCc2ccccc2)cc1 [2-methyl-N-(4-phenylmethoxyphenyl)furan-3-carboxamide]	> 32
CC(C)=CC(=O)Nc1ccc(OCc2ccccc2)cc1 [3-methyl-N-(4-phenylmethoxyphenyl)but-2-enamide]	> 32
COc1cc2c(cc1NC(=O)CSc1ccccc1)oc1ccccc12 [MLS000579482]	> 32
COc1ccc2c(c1)cc(C)c1nnc(SCC(=O)N(C)c3nc(-c4ccccc4)cs3)n12 [MLS-0102574.0001]	> 32
CC(C)Oc1ccc(S(=O)(=O)N2CCOCC2)cc1NC(=O)c1ccc(N2CCCC2=O)cc1 [N-(5-morpholin-4-ylsulfonyl-2-propan-2-yloxy-phenyl)-4-(2-oxidanylidenepyrrolidin-1-yl)benzamide]	> 32
COc1ccc(S(=O)(=O)N2CCOCC2)cc1NC(=O)c1cc2c(s1)CCCC2 [N-[2-methoxy-5-(4-morpholinylsulfonyl)phenyl]-4,5,6,7-tetrahydro-1-benzothiophene-2-carboxamide]	> 32
COc1ccc2cc(C)c3nnc(SCC(=O)Nc4nc(-c5ccc(F)cc5)cs4)n3c2c1 [N-[4-(4-fluorophenyl)-1,3-thiazol-2-yl]-2-[(8-methoxy-4-methyl-[1,2,4]triazolo[4,3-a]quinolin-1-yl)sulfanyl]ethanamide]	> 32
COc1ccc(-c2csc(NC(=O)CSc3nnc4c(C)cc5ccccc5n34)n2)cc1 [N-[4-(4-methoxyphenyl)-1,3-thiazol-2-yl]-2-[(4-methyl-[1,2,4]triazolo[4,3-a]quinolin-1-yl)sulfanyl]ethanamide]	> 32
O=C(CSc1nc2ccccc2s1)N1c2ccccc2Sc2ccc(Cl)cc21 [SMR000198068]	> 32
CC(C)NS(=O)(=O)c1ccc(NC(=S)NC(=O)c2ccc(-c3ccccc3)cc2)cc1 [SMR000200853]	> 32
CC(Sc1nc2cc(Cl)ccc2s1)C(=O)Nc1cccc(S(=O)(=O)N2CCOCC2)c1 (stereo unspecified) [SMR000243093]	> 32
CN(C)S(=O)(=O)c1ccc(N2CCCC2)c(C(=O)N2CCN(c3ccc([N+](=O)[O-])cc3)CC2)c1 [SMR000370611]	> 32

Same assay, conditions: inactive by the depositor's call

SMILES	IC50 [µM]
CCCN(CCC)Cc1c(C(=O)NN=C/C(C)=C\c2ccco2)nnn1-c1nonc1N [1-(4-azanyl-1,2,5-oxadiazol-3-yl)-5-[(dipropylamino)methyl]-N-[[(Z)-3-(furan-2-yl)-2-methyl-prop-2-enylidene]amino]-1,2,3-triazole-4-carboxamide]	24.4
